# Assay results as given in article PMC7216583 (Parasites & Vectors, 2020).
# Structures can show the parent of a compound that is named as a salt. Where two headings read alike, the source gives them in different places.
# Assays:
# [1] = target: TGF-β receptor type II (TβRII); parameters: method as in S-inhibitor catalog; settings: vendor brief description; ref S-inhibitor catalog; cited from earlier work
# [2] = test system: Toxoplasma gondii RH-2F tachyzoites; experiment: microbe, parasite or virus in culture; settings: 72 h
# APPL (γ-secretase) = target: APPL (γ-secretase); parameters: method as in S-inhibitor catalog; settings: vendor brief description; ref S-inhibitor catalog; cited from earlier work
# Notch (γ-secretase) = target: Notch (γ-secretase); parameters: method as in S-inhibitor catalog; settings: vendor brief description; ref S-inhibitor catalog; cited from earlier work
# [3] = test system: Toxoplasma gondii RH-2F tachyzoites; settings: preliminary screen of compound library; mean
# Mps1 = test system: Mps1; parameters: method as in S-inhibitor catalog; settings: vendor brief description; ref S-inhibitor catalog; cited from earlier work
# human DGAT-1 = test system: human DGAT-1; parameters: method as in S-inhibitor catalog; settings: vendor brief description; ref S-inhibitor catalog; cited from earlier work
# mouse DGAT-1 = test system: mouse DGAT-1; parameters: method as in S-inhibitor catalog; settings: vendor brief description; ref S-inhibitor catalog; cited from earlier work
# [4] = target: glycogen phosphorylase (GP); parameters: method as in S-inhibitor catalog; settings: vendor brief description; ref S-inhibitor catalog; cited from earlier work
# mTOR = test system: mTOR; parameters: method as in S-inhibitor catalog; settings: vendor brief description; ref S-inhibitor catalog; cited from earlier work
# PI3Kα = test system: PI3Kα; parameters: method as in S-inhibitor catalog; settings: vendor brief description; ref S-inhibitor catalog; cited from earlier work
# PI3Kβ = test system: PI3Kβ; parameters: method as in S-inhibitor catalog; settings: vendor brief description; ref S-inhibitor catalog; cited from earlier work
# [5] = target: farnesoid X receptor (FXR); parameters: method as in S-inhibitor catalog; settings: vendor brief description; ref S-inhibitor catalog; read-out: EC50, FXR agonist; cited from earlier work
# [6] = test system: Pol I-driven transcription of rRNA; parameters: method as in S-inhibitor catalog; settings: in HCT-116 cells; vendor brief description; ref S-inhibitor catalog; cited from earlier work
# p38α = settings: read-out: IC50, p38α; vendor brief description; ref S-inhibitor catalog; cited from earlier work
# mouse c-Met = target: mouse c-Met; parameters: method as in S-inhibitor catalog; settings: vendor brief description; ref S-inhibitor catalog; cited from earlier work
# human c-Met = target: human c-Met; parameters: method as in S-inhibitor catalog; settings: vendor brief description; ref S-inhibitor catalog; cited from earlier work
# in vitro = settings: human, Host viability (%) mean
# BRAFV600E = test system: BRAFV600E; parameters: method as in S-inhibitor catalog; settings: vendor brief description; ref S-inhibitor catalog; cited from earlier work
# wild-type CRAF = test system: wild-type CRAF; parameters: method as in S-inhibitor catalog; settings: vendor brief description; ref S-inhibitor catalog; cited from earlier work
# PI3Kγ = test system: PI3Kγ; parameters: method as in S-inhibitor catalog; settings: vendor brief description; ref S-inhibitor catalog; cited from earlier work
# IGF-1R = test system: IGF-1R; parameters: method as in S-inhibitor catalog; settings: vendor brief description; ref S-inhibitor catalog; cited from earlier work
# ALK = settings: read-out: IC50, ALK; vendor brief description; ref S-inhibitor catalog; cited from earlier work
# JAK2 = test system: JAK2; parameters: method as in S-inhibitor catalog; settings: vendor brief description; ref S-inhibitor catalog; cited from earlier work
# Flt3 = test system: Flt3; parameters: method as in S-inhibitor catalog; settings: vendor brief description; ref S-inhibitor catalog; cited from earlier work
# Ret = test system: Ret; parameters: method as in S-inhibitor catalog; settings: vendor brief description; ref S-inhibitor catalog; cited from earlier work
# GSK-3β = settings: read-out: IC50, GSK-3β; vendor brief description; ref S-inhibitor catalog; cited from earlier work
# GSK-3ɑ = settings: read-out: IC50, GSK-3ɑ; vendor brief description; ref S-inhibitor catalog; cited from earlier work
# γ-secretase [7] = target: γ-secretase; parameters: method as in S-inhibitor catalog; settings: vendor brief description; ref S-inhibitor catalog; read-out: IC50, membrane-based γ-secretase; cited from earlier work
# γ-secretase [8] = target: γ-secretase; parameters: method as in S-inhibitor catalog; settings: vendor brief description; ref S-inhibitor catalog; read-out: IC50, cell-based γ-secretase; cited from earlier work
# mutant CETP(C13S) = test system: mutant CETP(C13S); parameters: method as in S-inhibitor catalog; settings: vendor brief description; ref S-inhibitor catalog; cited from earlier work
# MDMX = test system: MDMX; parameters: method as in S-inhibitor catalog; settings: vendor brief description; ref S-inhibitor catalog; read-out: IC50, MDMX suppression; cited from earlier work
# [9] = test system: Akt phosphorylation on T308; parameters: method as in S-inhibitor catalog; settings: vendor brief description; ref S-inhibitor catalog; cited from earlier work
# [10] = test system: Akt phosphorylation on S473; parameters: method as in S-inhibitor catalog; settings: vendor brief description; ref S-inhibitor catalog; cited from earlier work
# [11] = target: opioid receptor-like1 (ORL1) receptor; parameters: method as in S-inhibitor catalog; settings: vendor brief description; ref S-inhibitor catalog; cited from earlier work
# CDK4 = test system: CDK4; parameters: method as in S-inhibitor catalog; settings: vendor brief description; ref S-inhibitor catalog; cited from earlier work
# CDK6 = test system: CDK6; parameters: method as in S-inhibitor catalog; settings: vendor brief description; ref S-inhibitor catalog; cited from earlier work
# CDK7 = test system: CDK7; parameters: method as in S-inhibitor catalog; settings: vendor brief description; ref S-inhibitor catalog; cited from earlier work
# CDK1 = test system: CDK1; parameters: method as in S-inhibitor catalog; settings: vendor brief description; ref S-inhibitor catalog; cited from earlier work
# CDK9 = test system: CDK9; parameters: method as in S-inhibitor catalog; settings: vendor brief description; ref S-inhibitor catalog; cited from earlier work
# Cdc7 = test system: Cdc7; parameters: method as in S-inhibitor catalog; settings: vendor brief description; ref S-inhibitor catalog; cited from earlier work
# cancer cell lines = test system: cancer cell lines; parameters: method as in S-inhibitor catalog; settings: vendor brief description; ref S-inhibitor catalog; cited from earlier work
# fatty acid synthesis = test system: fatty acid synthesis; parameters: method as in S-inhibitor catalog; settings: vendor brief description; ref S-inhibitor catalog; cited from earlier work
# AMPK = settings: read-out: EC50, AMPK activation; vendor brief description; ref S-inhibitor catalog; cited from earlier work
# Aurora B = test system: Aurora B; parameters: method as in S-inhibitor catalog; settings: vendor brief description; ref S-inhibitor catalog; cited from earlier work
# Aurora A = test system: Aurora A; parameters: method as in S-inhibitor catalog; settings: vendor brief description; ref S-inhibitor catalog; cited from earlier work
# PDGFRα = test system: PDGFRα; parameters: method as in S-inhibitor catalog; settings: in PDGFRα over-expressed CHO cells; vendor brief description; ref S-inhibitor catalog; cited from earlier work
# Chk1 = test system: Chk1; parameters: method as in S-inhibitor catalog; settings: vendor brief description; ref S-inhibitor catalog; cited from earlier work
# ErbB1 = test system: ErbB1; parameters: method as in S-inhibitor catalog; settings: vendor brief description; ref S-inhibitor catalog; cited from earlier work
# ErbB2 = test system: ErbB2; parameters: method as in S-inhibitor catalog; settings: vendor brief description; ref S-inhibitor catalog; cited from earlier work
# ErbB4 = test system: ErbB4; parameters: method as in S-inhibitor catalog; settings: vendor brief description; ref S-inhibitor catalog; cited from earlier work
# [12] = read-out: Parasite inhibition (%) mean
# [13] = read-out: Parasite inhibition (%) mean, preliminary screen of compound library, mean
compound,measurement,setting,value
c1ccc(-c2nn3c(c2-c2ccnc4cc(OCCN5CCOCC5)ccc24)CCC3)nc1 [LY2109761],Ki,[1],300 nM
same,inhibition of growth at 5 µM,[2]; [12],46.7%
C[C@H](NC(=O)Cc1cc(F)cc(F)c1)C(=O)N[C@@H]1C(=O)N(C)c2ccccc2-c2ccccc21 [YO-01027],IC50,APPL (γ-secretase),2.6 nM
same,IC50,Notch (γ-secretase),2.9 nM
same,inhibition of growth at 5 µM,[2]; [13],1.4%
AZ 3146,Parasite inhibition (%) mean,[3],3.4%
same,IC50,Mps1,~35 nM
O=C(Nc1ccccc1)Nc1ccc(-c2ccc(C(=O)[C@@H]3CCC[C@@H]3C(=O)O)cc2)cc1 [A 922500],IC50,human DGAT-1,7 nM
same,IC50,mouse DGAT-1,24 nM
same,inhibition of growth at 5 µM,[2]; [13],2%
CN(C)C(=O)[C@H](O)[C@H](Cc1ccccc1)NC(=O)c1cc2cc(Cl)ccc2[nH]1 [CP-91149],IC50,[4],130 nM
same,inhibition of growth at 5 µM,[2]; [13],28.6%
CCn1nnc2c(N3CCOCC3)nc(-c3ccc(NC(=O)Nc4ccc(C(=O)N5CCN(C)CC5)cc4)cc3)nc21 [PKI-402],IC50,mTOR,3 nM
same,IC50,PI3Kα,2 nM
same,inhibition of growth at 5 µM,[2]; [13],36.9%
CC(C)OC(=O)C1=CN(C(=O)c2ccc(F)c(F)c2)CC(C)(C)c2c1[nH]c1ccccc21 [WAY-362450],EC50,[5],4 nM
same,inhibition of growth at 5 µM,[2]; [13],-2.1%
Cc1cnc(CNC(=O)c2c(=O)c3ccc(N4CCCN(C)CC4)nc3n3c2sc2ccccc23)cn1 [CX-5461],IC50,[6],142 nM
same,inhibition of growth at 5 µM,[2]; [13],2.5%
CNC(=O)c1ccc(C)c(-n2c(C)cc(OCc3ccc(F)cc3F)c(Br)c2=O)c1 [PH-797804],IC50,p38α,26 nM
same,inhibition of growth at 5 µM,[2]; [13],1.5%
COc1ccc2c(Oc3ccc(NC(=O)c4c(C)n(CC(C)(C)O)n(-c5ccccc5)c4=O)nc3)ccnc2c1 [AMG458],Ki,mouse c-Met,2 nM
same,Ki,human c-Met,1.2 nM
same,viability at 72 h,in vitro,75.9%
same,inhibition of growth at 5 µM,[2]; [13],86.6%
Cc1ccc(NC(=O)c2cccc(C(C)(C)C#N)c2)cc1Nc1ccc2ncn(C)c(=O)c2c1 [AZ628],IC50,BRAFV600E,34 nM
same,IC50,wild-type CRAF,29 nM
same,inhibition of growth at 5 µM,[2]; [13],0.6%
O=C1NC(=O)C(=Cc2ccc(-c3ccc(F)cc3)o2)S1 (stereo in doubt) [CAY10505],IC50,PI3Kγ,30 nM
same,inhibition of growth at 5 µM,[2]; [13],-7.4%
CNC(=O)c1c(F)cccc1Nc1nc(Nc2cc3c(cc2OC)CCN3C(=O)CN(C)C)nc2[nH]ccc12 [GSK1838705A],IC50,IGF-1R,2 nM
same,viability at 72 h,in vitro,72.8%
same,IC50,ALK,0.5 nM
same,inhibition of growth at 5 µM,[2]; [13],70.9%
Cc1cnc(Nc2ccc(N3CCN(C)CC3)cc2)nc1Nc1cccc(S(=O)(=O)NC(C)(C)C)c1 [TG101209],IC50,JAK2,6 nM
same,IC50,Flt3,25 nM
same,inhibition of growth at 5 µM,[2]; [13],-21.3%
same,IC50,Ret,17 nM
Nc1nc(NCCNc2ncc(-n3ccnc3)c(-c3ccc(Cl)cc3Cl)n2)ccc1[N+](=O)[O-] [CHIR-98014],IC50,GSK-3β,0.58 nM
same,IC50,GSK-3ɑ,0.65 nM
same,inhibition of growth at 5 µM,[2]; [12],52.4%
C[C@H](NC(=O)[C@@H](O)c1cc(F)cc(F)c1)C(=O)N[C@@H]1C(=O)N(C)c2ccccc2-c2ccccc21 [LY411575],IC50,γ-secretase [7],0.078 nM
same,IC50,γ-secretase [8],0.082 nM
same,inhibition of growth at 5 µM,[2]; [13],0.9%
COc1cc(F)c(C(C)C)cc1-c1ccc(C(F)(F)F)cc1CN1C(=O)O[C@H](c2cc(C(F)(F)F)cc(C(F)(F)F)c2)[C@H]1C [Anacetrapib (MK-0859)],IC50,mutant CETP(C13S),11.8 nM
same,inhibition of growth at 5 µM,[2]; [13],22.1%
CN1CCN(c2ccc([N+](=O)[O-])c3no[n+]([O-])c23)CC1 [NSC-207895 (XI-006)],IC50,MDMX,2500 nM
same,inhibition of growth at 5 µM,[2]; [13],0.2%
COc1ccc(-c2cc3c(C)nc(N)nc3n([C@H]3CC[C@H](OCCO)CC3)c2=O)cn1 [PF-04691502],IC50,[9],7.5 nM
same,IC50,[10],3.8 nM
same,inhibition of growth at 5 µM,[2]; [13],11.5%
CCc1ccc(OCc2ccccc2C(=O)Nc2ccc3nc(C)cc(N)c3c2)cc1 [JTC-801],IC50,[11],94 nM
same,viability at 72 h,in vitro,16.4%
same,inhibition of growth at 5 µM,[2]; [13],98.8%
CN1CC[C@H](c2c(O)cc(O)c3c(=O)cc(-c4ccccc4Cl)oc23)[C@H](O)C1 [Flavopiridol (Alvocidib) HCl],IC50,CDK4,[…]
same,IC50,CDK7,300 nM
same,inhibition of growth at 5 µM,[2]; [13],6.4%
O=C1NCCc2[nH]c(-c3ccncc3)cc21 [PHA-767491],IC50,CDK9,[…]
same,inhibition of growth at 5 µM,[2]; [12],2.1%
O=C(Cc1ccc(-c2ccc(OCCN3CCOCC3)cc2)cn1)NCc1ccccc1 [KX2-391],GI50,cancer cell lines,9 to 60 nM
same,inhibition of growth at 5 µM,[2]; [13],7.6%
N#Cc1c(O)c2c(-c3ccc(-c4ccccc4O)cc3)csc2[nH]c1=O [A-769662],IC50,fatty acid synthesis,3200 nM
same,inhibition of growth at 5 µM,[2]; [13],-13.9%
CC(=O)NCC(=O)N1[C@H]2CC[C@H]1c1cc(Nc3ncc(C(F)(F)F)c(NC4CCC4)n3)ccc12 [PF-03814735],IC50,Aurora B,5 nM
same,viability at 72 h,in vitro,60.3%
same,inhibition of growth at 5 µM,[2]; [13],80.4%
same,IC50,Aurora A,0.8 nM
CC1(COc2ccc3c(c2)ncn3-c2ccc3cccc(N4CCC(N)CC4)c3n2)COC1 [Crenolanib (CP-868596)],IC50,PDGFRα,[…]
same,inhibition of growth at 5 µM,[2]; [13],0.2%
O=c1[nH]c2ccc(Cl)cc2c(N[C@@H]2CN3CCC2CC3)c1-c1nc2ccccc2[nH]1 [CHIR-124],IC50,Chk1,0.3 nM
same,inhibition of growth at 5 µM,[2]; [13],0%
"COc1cc2ncnc(Nc3ccc(F)c(Cl)c3)c2cc1NC(=O)/C=C/CN1CCCCC1 [Dacomitinib (PF299804,PF-00299804)]",IC50,ErbB1,[…]
same,inhibition of growth at 5 µM,[2]; [13],0.4%
